What was measured:
[1] = system: Plasmodium berghei transfected with green fluorescence protein (strain ANKA); assay: In vivo efficacy (four-day dosing) in P. berghei-infected mice, % parasitaemia by flow cytometry; set-up: species or system Plasmodium berghei in male C57BL/6 mice; settings: day five post-infection; for % parasitaemia: once a day for four days, mean ± S.E.M; for % growth inhibition: relative to negative control (placebo)
Description: Plasmodium berghei transfected with green fluorescence protein (strain ANKA), a chloroquine-sensitive strain, was stored in liquid nitrogen. Parasites were thawed and administered intraperitoneally (IP) to infect two donor mice a week before the experiment commenced. […] Finally, each of the test animals received 200 μl of the P. berghei-infected RBCs (1×10^7 per 200 μl PBS) IP to infect them with the parasite. There were three animals per dose group, and each of them received 200 μl of NP046 in water orally and intravenously (volume adjusted relative to the weight of mouse) at their respective dose concentration as shown below:
The test compound was administered to the animals once a day for four days. […] Blood samples were collected via tail bleeding in tubes containing PBS on day 5, and % parasitaemia was determined with FACSCalibur™ using the software CellQuestPro [5].
Finally, the percentage parasite growth inhibition was calculated using the following equation [6]: [drawing 1]

[2] = Metabolic stability in human liver microsomes; format: in vitro ADME; settings: 0-60 minutes, read-out: in vitro intrinsic clearance
Description: Metabolism is an enzymatic process in which a drug is chemically modified into polar metabolites that can be more readily excreted from the body. Metabolism occurs mainly in the liver, and the intestine. The metabolic stability of NP046 was determined in human and mouse liver microsomes using a multiple-time-point method at 0, 5, 10, 30, and 60 minutes [for the methodology see Additional file 5].
Summary of the assay method for the determination of microsomal stability:
The assay method was adopted from Obach, 1999, Giuliano et al., 2005, and Naritomi et al., 2001, with a slight modification.
The liver microsome (human and mouse) was thawed at 37 °C, and diluted to 0.4 mg/ml in a preheated (at 37 °C) 0.1 M phosphate buffer.
The primary stock solutions (10 mM) of the controls and test compounds were diluted as follows: first in DMSO to obtain 400 µM solutions followed by dilution in phosphate buffer to 40 µM, and were vortex mixed well by vortexing at each step of dilution.
A reaction premix (in triplicate for each control and test compound) were prepared by mixing 15 µl of the 40 µM solution with 530 µl of 0.4 mg/ml microsome mixture in a premix plate, and mixed carefully using a plate shaker. […]
The intrinsic clearance (ml/min/kg) was calculated using the equation (Obach et al., 1997): […]

Caco-2 cell line = assay: Caco-2 permeability, apical to basolateral drug transport assay; format: in vitro ADME, human; settings: transport buffer pH 7.4, LC-MS/MS, experiment repeated with same result
Text: Permeability is the speed/velocity and extent to which a drug passes through a biological membrane obstacle in a living system, such as the gastrointestinal (GI) epithelial cells, the blood capillary wall, the target cell membrane. The Caco-2 cell line (a continuous line of heterogeneous human epithelial colorectal adenocarcinoma cells), the most widely used and recognized as a model of the intestinal barrier was used to determine the in vitro permeability of NP046 [for the methodology see Additional file 6]. The transport of each drug from the apical side to the basolateral side was done using a transport buffer that consisted of Hank’s Balanced Salt Solution (HBSS) + 10 mM HEPES + […] NaHCO3, pH 7.4 (1:100 1 M HEPES in HBSS). The drug transport assay was performed by determining the concentrations of the test compound from the basolateral chamber, using an LC-MS/MS assay. […] Therefore, the experiment was repeated and the same result was obtained. This could be due to the following reasons: IVc. Drug transport assay: The monolayer was rinsed with HBSS Test compounds (200 µl) was added into the apical chambers of the monolayers inserted in a plate containing 600 µl HBSS The plate was placed in a water bath with orbital shaker (60 rpm) for 2 hours at 37 °C Fifty micro litters of the solution were removed from the apical and basolateral wells and analysed using LC-MS method.

[3] = Analyte stock solution stability; format: physicochemical; settings: 100 days; for Analyte stock solution stability, % Reference: vs fresh
Description: NP046 was stable for 100 days in stock solutions of methanol and acetonitrile when stored at room temperature and -20 °C. It was stable in whole blood on bench for 3.3 hours while waiting for extraction, and was stable after three freeze-thaw cycles too.

Oc1cc(CCCc2ccc(F)cc2)ccc1CN1CCCCC1 [NP046, 5-(3-(4-fluorophenyl)propyl)-2-(piperidin-1-ylmethyl)phenol]
% parasitaemia ([1]; 1 mg/kg IV): 10.2 ± 1.75%
% growth inhibition ([1]; 5 mg/kg IV): 87.4%
% parasitaemia ([1]; 5 mg/kg IV): 4.05 ± 0.12%
% growth inhibition ([1]; 10 mg/kg oral): 24.6%
% parasitaemia ([1]; 10 mg/kg oral): 24.3 ± 0.80%
% growth inhibition ([1]; 50 mg/kg oral): 47.3%
% parasitaemia ([1]; 50 mg/kg oral): 16.7 ± 3.34%
microsomal CLint at 0.99 µM [2]: 119 µL/min/mg
test compound found in the basolateral chamber (apical to basolateral transport) (Caco-2 cell line): no quantifiable amount
Analyte stock solution stability, % Reference ([3]; in acetonitrile, room temperature): 102.1%
Analyte stock solution stability, % Reference ([3]; in acetonitrile, ~ 5°C): 83.1%
Analyte stock solution stability, % Reference ([3]; in acetonitrile, ~ -20°C): 99.9%
Analyte stock solution stability, % Reference ([3]; in methanol, room temperature): 93.7%
Analyte stock solution stability, % Reference ([3]; in methanol, ~ 5°C): 87.8%
Analyte stock solution stability, % Reference ([3]; in methanol, ~ -20°C): 94.3%
stability in stock solutions ([3]; methanol and acetonitrile, room temperature and -20°C): stable

— paper PMC4326489, “Efficacy and pharmacokinetic evaluation of a novel anti-malarial compound (NP046) in a mouse model” (Malaria Journal, 2015)
